Laboratory results as given in patent US7125872B2, “β-sheet mimetics and use thereof as inhibitors of biologically active peptides or proteins” (Myriad Genetics, Inc., priority 1995, dated 2006).
Blank lines part the entries; values can stand above or below the compound they belong to.

Key:
bovine trypsin = biological target: T1, bovine trypsin (Bos taurus, UniProt P00760); test: trypsin inhibition assay, IC50 (Example 4); assay type: biochemical
T1 construct: purchased Sigma
T1 sequence (P00760 24-246): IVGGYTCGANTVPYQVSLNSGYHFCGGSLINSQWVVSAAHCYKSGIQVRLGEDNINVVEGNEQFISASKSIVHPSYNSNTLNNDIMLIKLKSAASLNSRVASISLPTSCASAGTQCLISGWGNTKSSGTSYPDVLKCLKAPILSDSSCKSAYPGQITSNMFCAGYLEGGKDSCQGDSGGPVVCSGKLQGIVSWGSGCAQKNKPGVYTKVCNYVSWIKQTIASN
Description: All inhibition assays of this experiment were performed at room temperature in 96 well microplates using a Bio-Rad microplate reader (Model 3550). […] This solution (2.05 mM) served as the stock solution for all the inhibition assays. The hydrolysis of chromogenic substrates was monitored at 405 nm. The reaction progress curves were recorded by reading the plates typically 90 times with 30 seconds to 2 minute intervals. The initial rate were determined by unweighted nonlinear least-squares fitting to a first order reaction in GraFit. The determined initial velocities were then nonlinear least-square fitted against the concentrations of structure.
In the trypsin assay, pH 7.8 Tris (0.10 M Tris and 0.02 M CaCl2) was utilized as the buffer. BAPNA (from Sigma) was used at 1 mg/ml in 1% DMSO (v/v) deionized water solution as substrate. The same dilutions of structure (13b) were made as for Factor VII assay.

[1] = pharmacodynamic and pharmacokinetic study in rats; assay type: in vivo, male Sprague Dawley rats
Description: Specifically, a pharmacodynamic and pharmacokinetic study of structure (20b) was conducted in male Sprague Dawley rats. […] Groups of rats (n=3 or 4) were sacrificed and exsanguinated at 0.25, 0.5, 1, 2, 4 and 8 hours following dosing. Efficacy parameters, aPTT and TT, were measured for each plasma sample.

factor VII = factor VII (Homo sapiens, UniProt P08709); test: Factor VII inhibition assay, Ki (Example 5); assay type: biochemical
Description: (§1) The reaction progress curves were recorded by reading the plates, typically 60 times with 30 second to 2 minute intervals. Initial rates were determined by unweighted nonlinear least-squares fitting to a first order reaction in GraFit (Erithacus Software Limited, London, England).
From this concentration point seven more sequential dilutions were made for the assay.

factor X = factor X (Bos taurus, UniProt P00743); test: Factor X inhibition assay, Ki, bovine plasma enzyme; assay type: biochemical; conditions: bovine plasma (footnote e)
Description: All inhibition assays were performed at room temperature in 96 well microplates using Bio-Rad microplate reader (Model 3550). […] The hydrolysis of chromogenic subsstrates was monitored at 405 nm. The reaction progress curves were recorded by reading the plates, typically 60 times with 30 second to 2 minute intervals. Initial rates were determined by unweighted nonlinear least-squares fitting to a first order reaction in GraFit (Erithacus Software Limited, London, England).
Factor X: Buffer and substrate were the same as used for thrombin assay. A 1:100 dilution was made in the pH8.0 tris buffer to serve as the first point. Seven more dilutions from the first were made for the assay.

tryptase = biological target: T2, tryptase; test: tryptase inhibition assay, Ki; assay type: biochemical, human
T2 construct: rows headed: Ki tryptase; Ki Tryptase; tryptase; human lung; 2 (nM assay conc.)
Description: as §1
Tryptase: 0.1 M tris, 0.2 M NaCl, 0.1 mg/ml heparin, pH=8.0 was utilized as buffer. […] From this point seven more dilutions were made for the assay.

[2] = biological target: T3, Thrombin thrombomodulin complex (Bos taurus, UniProt P00735); test: thrombin-thrombomodulin complex inhibition assay, Ki; assay type: biochemical; conditions: read-out: Ki T.T.C. (Thrombin thrombomodulin complex)
T3 construct: thrombin was preincubated with 4 n thrombomodulin for 20 minutes at room temperature

factor X, sequence (P00743 234-492 limits assumed): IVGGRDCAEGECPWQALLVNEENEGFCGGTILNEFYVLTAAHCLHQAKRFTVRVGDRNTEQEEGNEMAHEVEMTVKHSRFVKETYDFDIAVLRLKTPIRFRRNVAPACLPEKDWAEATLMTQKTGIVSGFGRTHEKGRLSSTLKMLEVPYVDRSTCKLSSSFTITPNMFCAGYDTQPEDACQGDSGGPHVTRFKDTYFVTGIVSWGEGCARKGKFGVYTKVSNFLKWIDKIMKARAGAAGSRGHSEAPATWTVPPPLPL
factor X, sequence (P00743 41-180 limits assumed): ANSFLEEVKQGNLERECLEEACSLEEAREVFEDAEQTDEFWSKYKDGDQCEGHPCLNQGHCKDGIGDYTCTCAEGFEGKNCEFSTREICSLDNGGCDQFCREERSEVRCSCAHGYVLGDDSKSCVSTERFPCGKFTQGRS
factor VII, sequence (P08709 213-466 limits assumed): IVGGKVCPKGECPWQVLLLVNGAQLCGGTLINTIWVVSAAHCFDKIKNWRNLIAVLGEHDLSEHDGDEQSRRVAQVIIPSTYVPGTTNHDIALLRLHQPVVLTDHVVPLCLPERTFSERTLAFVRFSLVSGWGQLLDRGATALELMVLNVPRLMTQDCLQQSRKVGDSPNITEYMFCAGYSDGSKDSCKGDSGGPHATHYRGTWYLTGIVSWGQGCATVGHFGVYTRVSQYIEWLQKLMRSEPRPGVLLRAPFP
factor VII, sequence (P08709 61-212 limits assumed): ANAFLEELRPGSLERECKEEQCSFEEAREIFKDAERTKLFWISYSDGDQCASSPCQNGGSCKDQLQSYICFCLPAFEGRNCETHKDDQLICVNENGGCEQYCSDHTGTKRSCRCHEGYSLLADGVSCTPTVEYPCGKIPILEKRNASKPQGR
factor VII, sequence (P13726 33-295 partner): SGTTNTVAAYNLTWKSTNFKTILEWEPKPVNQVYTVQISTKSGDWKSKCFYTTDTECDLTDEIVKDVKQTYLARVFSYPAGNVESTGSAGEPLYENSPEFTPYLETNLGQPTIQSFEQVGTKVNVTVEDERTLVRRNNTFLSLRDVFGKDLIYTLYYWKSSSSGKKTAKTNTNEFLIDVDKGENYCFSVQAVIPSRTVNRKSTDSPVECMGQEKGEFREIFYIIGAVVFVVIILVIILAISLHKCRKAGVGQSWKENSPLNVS

- IC50 (bovine trypsin): 16 ± 8 nM
SMILES: N=C(N)NCCC[C@H](NC(=O)[C@@H]1CCN2CC[C@@](N)(Cc3ccccc3)C(=O)N12)C(=O)CCl [Structure (13b)]

- bioavailability of orally administered compound ([1]; rat, 10 mg/kg PO vs 4 mg/kg IV): approximately 27%
SMILES: N=C(N)NCCC[C@H](NC(=O)[C@@H]1CCN2CC[C@@](N)(Cc3ccccc3)C(=O)N12)C(=O)c1nc2ccccc2s1 [Structure (20b)]
- efficacy parameters aPTT and TT ([1]; rat plasma, 4 mg/kg IV and 10 mg/kg PO, FIGS. 4A and 4B): in viva efficacy

- Ki (factor VII): 1770 nM
- Ki (factor X): 4650 nM
SMILES: N=C(N)NCCC[C@H](NC(=O)[C@@H]1CC[C@@H]2CC[C@](N)(Cc3ccccc3)C(=O)N21)C(=O)c1nc2ccccc2s1 [Structure (29a)]

- Ki (tryptase): 9 nM
- Ki [2]: 0.088 nM
SMILES: N=C(N)NCCC[C@H](NC(=O)[C@@H]1CC[C@@H]2CC[C@@](N)(Cc3ccccc3)C(=O)N21)C(=O)c1nc2ccccc2s1 [Structure (29b)]
